According to publication PMC3781954 (Archives of biochemistry and biophysics, 2013):

What was measured:
Rabbit CYP2E1 [1] = target: T1, Rabbit CYP2E1 (Oryctolagus cuniculus, UniProt P08682); assay: Spectral binding studies; details: for fold increase in affinity (Kd) relative to pyrazole: catalytic site
Rabbit CYP2E1 [2] = target: T1, Rabbit CYP2E1; assay: Inhibition of 4-nitrophenol oxidation to 4-nitrocatechol by reconstituted CYP2E1; details: for Inhibition Mechanism: most probable mechanism by DynaFit model discrimination, substrate 4-nitrophenol; for fold more potent than pyrazole: inhibition of CYP2E1 4-nitrophenol metabolism; for kcat2: turnover of the ESI complex, 95% confidence intervals in parentheses
CYP2E1 [3] = details: positive cooperativity; ref [4], [6]; cited from earlier work
CYP2E1 [4] = target: CYP2E1 (Oryctolagus cuniculus, UniProt P08682); assay: Spectral binding studies; parameters: species or system rabbit; details: rabbit, pH 7.4
CYP2E1 (Oryctolagus cuniculus, UniProt P08682), sequence (P08682 whole entry): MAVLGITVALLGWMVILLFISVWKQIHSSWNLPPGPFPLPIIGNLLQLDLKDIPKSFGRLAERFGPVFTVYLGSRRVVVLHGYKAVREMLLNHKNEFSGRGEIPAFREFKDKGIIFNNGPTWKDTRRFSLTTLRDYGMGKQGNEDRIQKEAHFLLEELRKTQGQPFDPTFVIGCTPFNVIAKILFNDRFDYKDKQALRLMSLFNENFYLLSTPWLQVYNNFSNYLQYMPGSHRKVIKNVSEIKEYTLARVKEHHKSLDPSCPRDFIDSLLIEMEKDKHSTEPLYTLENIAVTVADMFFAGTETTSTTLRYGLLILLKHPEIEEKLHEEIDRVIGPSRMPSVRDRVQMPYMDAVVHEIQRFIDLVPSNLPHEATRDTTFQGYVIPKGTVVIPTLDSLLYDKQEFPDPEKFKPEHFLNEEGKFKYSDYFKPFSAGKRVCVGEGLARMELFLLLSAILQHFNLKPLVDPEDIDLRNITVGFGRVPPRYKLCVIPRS

T1 sequence (P08682 whole entry): as above

Row | SMILES | Kd (Rabbit CYP2E1 [1]) | Inhibition Mechanism (Rabbit CYP2E1 [2]) | kcat2 (Rabbit CYP2E1 [2]) | further results
1 | Cc1cc(C)[nH]n1 [3,5-dimethylpyrazole] |  |  |  | spectral shift upon binding (Rabbit CYP2E1 [1]; concentrations as high as 1000 µM): did not induce a spectral; inhibition of the 4-nitrophenol reaction (Rabbit CYP2E1 [2]; concentration as high as 250 µM (data not shown)): no inhibition
2 | c1ccc(-c2cc[nH]n2)cc1 [3-phenylpyrazole] | 22 µM | Competitive |  | 
3 | c1n[nH]c2c1CCCC2 |  | Mixed, coop. substrate | 6.6 (2.3 to 9.6) min^−1 | fold increase in affinity (Kd) relative to pyrazole (Rabbit CYP2E1 [1]; spectral binding): 800 fold; fold more potent than pyrazole (Rabbit CYP2E1 [2]): 100 fold
4 | c1cn[nH]c1 [pyrazole] |  | Mixed, coop. substrate |  | 
5 | c1ccc2[nH]cnc2c1 [benzimidazole] | 550 µM |  |  | 
6 | c1ccc2[nH]ncc2c1 [indazole] |  | Mixed, coop. substrate | 11 (9.0 to 13) min^−1 | fold increase in affinity relative to tetrahydroindazole (Rabbit CYP2E1 [1]; spectral binding, aromatization of the second ring): about five-fold; fold more potent than pyrazole (Rabbit CYP2E1 [2]): more than 200 fold
7 | CCOc1ccc2ccc(=O)oc2c1 [7-ethoxycoumarin] |  |  |  | Hill coefficient (CYP2E1 [3]): 1.6
8 | Cc1cc[nH]n1 [3-methylpyrazole] | 11 µM | Mixed, coop. substrate | 8.7 (7.0 to 10) min^−1 | Kd (CYP2E1 [4]): 1.7 mM; fold increase in affinity (Kd) relative to pyrazole (Rabbit CYP2E1 [1]; spectral binding): 2 fold; fold higher affinity for the free enzyme than the ES complex (Rabbit CYP2E1 [2]): two-fold
9 | Cc1cccc(C)c1 [m-xylene] |  |  |  | Hill coefficient (CYP2E1 [3]): 1.4
